Measurements as given in publication PMC11951083, “Highly Specific Miniaturized Fluorescent Monoacylglycerol Lipase Probes Enable Translational Research” (Journal of the American Chemical Society, 2025).
Read-outs that look alike come from different tables or passages of the source.

Key:
[1] = tested on: BZD (central); assay: BZD (central) (agonist radioligand); conditions: 10 µM
[2] = molecular target: N neuronal alpha4beta2 (h) (Homo sapiens, UniProt P17787+P43681); assay: N neuronal alpha4beta2 (h) (agonist radioligand); conditions: read-out: Inhibition N neuronal alpha4beta2 (h) (agonist radioligand)
[3] = tested on: N muscle-type (h); assay: N muscle-type (h) (antagonist radioligand); conditions: 10 µM
[4] = molecular target: glycine (strychnine-insensitive) (Rattus norvegicus, UniProt P35439); assay: glycine (strychnine-insensitive) (antagonist radioligand); conditions: read-out: Inhibition glycine (strychnine-insensitive) (antagonist radioligand)
[5] = molecular target: T1, CCK1 (CCKA) (h) (Homo sapiens, UniProt P32238); assay: CCK1 (CCKA) (h) (agonist radioligand); conditions: read-out: Inhibition CCK1 (CCKA) (h) (agonist radioligand)
T1 sequence (P32238 1-428): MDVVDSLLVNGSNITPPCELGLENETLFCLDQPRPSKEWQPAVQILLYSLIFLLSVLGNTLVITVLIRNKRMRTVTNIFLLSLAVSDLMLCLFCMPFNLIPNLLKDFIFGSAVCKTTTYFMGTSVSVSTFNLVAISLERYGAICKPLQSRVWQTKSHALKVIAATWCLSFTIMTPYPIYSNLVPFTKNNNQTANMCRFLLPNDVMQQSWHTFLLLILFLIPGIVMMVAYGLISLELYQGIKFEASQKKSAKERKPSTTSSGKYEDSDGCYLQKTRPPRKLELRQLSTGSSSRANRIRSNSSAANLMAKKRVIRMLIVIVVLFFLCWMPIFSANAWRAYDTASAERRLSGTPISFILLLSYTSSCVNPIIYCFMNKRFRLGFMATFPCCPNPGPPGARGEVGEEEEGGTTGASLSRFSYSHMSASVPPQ

[6] = molecular target: T2, NanoLuc luciferase MAGL fusion protein (Homo sapiens, UniProt Q99685); assay: Cellular MAGL NanoBRET target engagement assay in live HEK293 cells; assay type: cell-based
T2 sequence (Q99685 1-303): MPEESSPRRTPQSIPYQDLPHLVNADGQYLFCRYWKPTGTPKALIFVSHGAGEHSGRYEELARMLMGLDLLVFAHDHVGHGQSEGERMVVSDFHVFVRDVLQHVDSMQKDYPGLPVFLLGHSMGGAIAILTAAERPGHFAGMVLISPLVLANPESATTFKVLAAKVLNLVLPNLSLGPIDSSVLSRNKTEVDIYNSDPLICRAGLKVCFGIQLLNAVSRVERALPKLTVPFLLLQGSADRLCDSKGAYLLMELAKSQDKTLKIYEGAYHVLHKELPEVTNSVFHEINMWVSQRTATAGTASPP
Method: This assay was performed as first described before.20
Compounds were profiled by a novel cellular MAGL NanoBRET™ Target Engagement assay, which measures the apparent affinity of test compounds by competitive displacement of a Roche -developed Tracer (WO2021058443, Example 2 121, or probe 4a, respectively), reversibly bound to a NanoLuc ® luciferase MAGL fusion protein in cells.
A HEK293A stable cell line expressing NanoLuc_MAGL was established at Roche and assigned as HEK293A_NanoLuc_MAGL clone #43. A fixed concentration of tracer is added to cells expressing the NanoLuc®_MAGL fusion protein to generate a BRET reporter complex. The introduction of competing compounds results in a dose -dependent decrease in NanoBRET™ energy transfer, which allows quantification of the intracellular affinity of the target protein for the test compound.
HEK293A_NanoLuc_MAGL clone #43 cells were cultured in DMEM (Gibco 31966) with 10% FBS and 800 ug/ml G418. The NanoBRET assay was performed by seeding 5000 cells/well in Costar low - volume white 384-well plate in assay buffer (1% FBS in HBSS), followed by adding the tracer (50 nM Example 21 or 100 nM 4a final concentration) and serial dilutions of test compounds. After 2 hours of incubation, Nanoluciferase substrates and extracellular inhibitors were added following the manufacturer's protocol (Promega, #N2520), and the NanoBRET signaling were quantified with the Paradigm (Molecular Devices).

[7] = molecular target: T3, GR (h) (Homo sapiens, UniProt P04150); assay: GR (h) (agonist radioligand); conditions: read-out: Inhibition GR (h) (agonist radioligand)
T3 sequence (P04150 1-777): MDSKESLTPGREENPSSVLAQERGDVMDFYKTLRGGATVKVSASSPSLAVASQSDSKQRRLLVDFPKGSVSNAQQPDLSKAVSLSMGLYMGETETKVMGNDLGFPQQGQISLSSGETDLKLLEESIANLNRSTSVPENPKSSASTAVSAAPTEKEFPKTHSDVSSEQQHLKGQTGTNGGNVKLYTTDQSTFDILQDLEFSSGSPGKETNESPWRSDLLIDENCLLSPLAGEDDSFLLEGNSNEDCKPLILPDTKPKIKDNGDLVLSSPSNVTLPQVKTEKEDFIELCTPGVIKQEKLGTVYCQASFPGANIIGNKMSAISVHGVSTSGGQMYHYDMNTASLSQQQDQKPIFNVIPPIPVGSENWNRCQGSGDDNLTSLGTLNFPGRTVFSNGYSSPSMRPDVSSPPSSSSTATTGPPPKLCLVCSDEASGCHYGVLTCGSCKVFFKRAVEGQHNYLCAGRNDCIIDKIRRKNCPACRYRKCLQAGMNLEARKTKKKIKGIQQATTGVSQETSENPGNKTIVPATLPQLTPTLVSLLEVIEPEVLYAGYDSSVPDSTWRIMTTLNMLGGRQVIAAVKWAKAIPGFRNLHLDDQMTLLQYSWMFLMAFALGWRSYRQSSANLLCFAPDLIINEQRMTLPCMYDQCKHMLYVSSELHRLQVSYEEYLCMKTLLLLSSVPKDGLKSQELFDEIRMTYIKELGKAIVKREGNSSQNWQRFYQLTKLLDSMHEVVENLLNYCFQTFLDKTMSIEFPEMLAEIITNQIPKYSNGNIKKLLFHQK

[8] = molecular target: H3 (h) (Homo sapiens, UniProt Q9Y5N1); assay: H3 (h) (agonist radioligand); conditions: read-out: Inhibition H3 (h) (agonist radioligand)
[9] = molecular target: CB1 (h) (Homo sapiens, UniProt P21554); assay: CB1 (h) (agonist radioligand); conditions: read-out: Inhibition CB1 (h) (agonist radioligand)
[10] = live HEK293 cells, read-out: IC50 nanoBRET

N neuronal alpha4beta2 (h), sequence (P43681 29-627 limits assumed): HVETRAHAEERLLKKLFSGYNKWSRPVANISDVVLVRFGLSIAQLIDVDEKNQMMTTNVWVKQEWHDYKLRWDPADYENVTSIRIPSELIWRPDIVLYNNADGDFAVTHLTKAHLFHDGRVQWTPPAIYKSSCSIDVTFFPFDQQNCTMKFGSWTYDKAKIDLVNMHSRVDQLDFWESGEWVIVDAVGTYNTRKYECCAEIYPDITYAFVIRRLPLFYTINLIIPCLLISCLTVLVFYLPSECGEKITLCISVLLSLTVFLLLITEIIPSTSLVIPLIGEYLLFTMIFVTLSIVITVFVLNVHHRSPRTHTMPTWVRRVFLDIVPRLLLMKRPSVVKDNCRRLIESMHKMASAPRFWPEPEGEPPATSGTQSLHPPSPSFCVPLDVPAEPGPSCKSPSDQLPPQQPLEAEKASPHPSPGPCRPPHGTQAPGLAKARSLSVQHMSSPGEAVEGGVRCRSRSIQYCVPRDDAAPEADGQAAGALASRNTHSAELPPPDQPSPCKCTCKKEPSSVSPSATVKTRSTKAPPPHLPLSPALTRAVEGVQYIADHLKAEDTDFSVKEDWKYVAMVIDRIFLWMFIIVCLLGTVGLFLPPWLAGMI
N neuronal alpha4beta2 (h), sequence (P17787 26-502): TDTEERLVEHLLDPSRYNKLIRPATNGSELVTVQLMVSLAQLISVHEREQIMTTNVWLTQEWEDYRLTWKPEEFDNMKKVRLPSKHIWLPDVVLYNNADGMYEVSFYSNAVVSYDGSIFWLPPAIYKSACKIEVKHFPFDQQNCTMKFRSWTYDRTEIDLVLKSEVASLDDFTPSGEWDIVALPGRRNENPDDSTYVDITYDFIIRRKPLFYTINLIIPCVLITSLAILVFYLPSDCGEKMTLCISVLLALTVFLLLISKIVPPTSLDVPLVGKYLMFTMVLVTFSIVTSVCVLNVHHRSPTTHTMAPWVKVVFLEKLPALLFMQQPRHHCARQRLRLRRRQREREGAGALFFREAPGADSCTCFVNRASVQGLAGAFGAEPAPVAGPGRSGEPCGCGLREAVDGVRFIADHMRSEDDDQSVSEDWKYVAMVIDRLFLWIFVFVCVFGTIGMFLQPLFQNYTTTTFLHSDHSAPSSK
CB1 (h), sequence (P21554 whole entry): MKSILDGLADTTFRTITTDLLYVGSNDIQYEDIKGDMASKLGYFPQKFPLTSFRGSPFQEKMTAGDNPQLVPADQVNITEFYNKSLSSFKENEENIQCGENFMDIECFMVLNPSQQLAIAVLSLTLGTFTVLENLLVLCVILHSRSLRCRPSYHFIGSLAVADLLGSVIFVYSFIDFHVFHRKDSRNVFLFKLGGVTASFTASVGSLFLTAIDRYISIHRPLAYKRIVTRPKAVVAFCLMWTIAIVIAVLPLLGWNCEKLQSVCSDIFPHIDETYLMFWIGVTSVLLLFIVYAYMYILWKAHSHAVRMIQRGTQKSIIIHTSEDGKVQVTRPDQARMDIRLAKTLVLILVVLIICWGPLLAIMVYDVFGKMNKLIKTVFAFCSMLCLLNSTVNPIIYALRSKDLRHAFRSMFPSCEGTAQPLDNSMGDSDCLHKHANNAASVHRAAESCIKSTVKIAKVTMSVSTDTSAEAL
glycine (strychnine-insensitive), sequence (P35439 394-800): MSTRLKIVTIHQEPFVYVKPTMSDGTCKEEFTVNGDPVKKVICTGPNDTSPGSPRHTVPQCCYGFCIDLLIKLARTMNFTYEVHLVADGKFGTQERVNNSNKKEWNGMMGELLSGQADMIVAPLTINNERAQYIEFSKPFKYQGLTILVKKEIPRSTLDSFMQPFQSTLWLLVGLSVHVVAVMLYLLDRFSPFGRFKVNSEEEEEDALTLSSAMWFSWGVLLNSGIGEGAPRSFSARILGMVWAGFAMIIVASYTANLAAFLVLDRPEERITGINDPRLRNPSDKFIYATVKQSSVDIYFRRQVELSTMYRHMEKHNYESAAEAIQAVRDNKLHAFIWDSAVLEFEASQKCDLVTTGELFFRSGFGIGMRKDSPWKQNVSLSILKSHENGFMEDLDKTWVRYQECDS
H3 (h), sequence (Q9Y5N1 whole entry): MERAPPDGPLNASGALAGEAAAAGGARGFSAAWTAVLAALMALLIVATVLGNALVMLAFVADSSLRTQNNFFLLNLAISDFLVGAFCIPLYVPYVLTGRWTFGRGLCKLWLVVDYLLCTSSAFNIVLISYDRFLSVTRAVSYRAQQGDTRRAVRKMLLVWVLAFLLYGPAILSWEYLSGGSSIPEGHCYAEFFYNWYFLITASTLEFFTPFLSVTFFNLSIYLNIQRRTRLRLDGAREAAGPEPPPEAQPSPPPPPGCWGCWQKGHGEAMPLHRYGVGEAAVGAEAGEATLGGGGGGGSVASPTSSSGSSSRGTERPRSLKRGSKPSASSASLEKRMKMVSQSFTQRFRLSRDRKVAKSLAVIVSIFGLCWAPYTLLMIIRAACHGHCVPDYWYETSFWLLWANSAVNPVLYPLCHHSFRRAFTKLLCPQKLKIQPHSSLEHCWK

Row | Compound | Inhibition BZD (central) (agonist radioligand) [1] | inhibition at 10 µM [2] | Inhibition N muscle-type (h) (antagonist radioligand) [3] | inhibition at 10 µM [4] | inhibition at 10 µM [5] | IC50 [6, 10] | inhibition at 10 µM [7] | inhibition at 10 µM [8] | inhibition at 10 µM [9] | IC50 [6]
1 | O=C(O[C@H](CO)C(F)(F)F)N1CC2(CC(CC3=C4C=CC=[N+]4[B-](F)(F)n4cccc43)C2)C1 [Compound 1] | -11,90% | -18.3% | -11,30% | -6.7% | -3.8% | 276 nM | 13.9% | 5.2% | 4.4% | –
2 | O=C(OC(C(F)(F)F)C(F)(F)F)N1CC2(CC(CC3=C4C=CC=[N+]4[B-](F)(F)n4cccc43)C2)C1 [Compound 2] | -27,70% | -1.7% | -0,30% | 6.5% | -8.8% | 720 nM | 9.1% | -7.2% | -16.1% | –
3 | O=C(OC(C(F)(F)F)C(F)(F)F)N1CC2(CC(CC3=C4C=CC(c5ccc[nH]5)=[N+]4[B-](F)(F)n4cccc43)C2)C1 [Compound 2a] | 0,90% | 4.2% | -9,40% | -2% | 11.9% | – | 26.3% | 7.3% | 6.3% | –
4 | O=C1CO[C@H]2CCN(C(=O)N3CC4(CC(CC5=C6C=CC=[N+]6[B-](F)(F)n6cccc65)C4)C3)C[C@H]2N1 [Compound 4] | – | – | – | – | – | 196 nM | – | – | – | –
5 | O=C1CO[C@H]2CCN(C(=O)N3CC4(CC(CC5=C6C=CC(c7ccc[nH]7)=[N+]6[B-](F)(F)n6cccc65)C4)C3)C[C@H]2N1 [Compound 4a] | -4,10% | -0.6% | -1,70% | 3.1% | -22.1% | – | 48.1% | 1.8% | -2.7% | –
6 | O=C(N1CC2(CC(CC3=C4C=CC=[N+]4[B-](F)(F)n4cccc43)C2)C1)N1CC2(CC(n3cnc(C4CC4)n3)C2)C1 [Compound 5] | -16,30% | -16.6% | 17,00% | -20.3% | -24.7% | – | 17.1% | -3.7% | 9.9% | 85 nM
